Assays:
[1] = system: IL-8 production by Caco-2 cells; test: Effect of promoting IL-8 production by Caco-2 cells (sandwich ELISA of culture supernatants); format: cell-based, human; settings: compounds at final concentration 100 μg/ml; 6-hour culture, then 12 hours in additive-free media; differentiated Caco-2 cells; significant difference P<0.01
Description: Caco-2 cells (human colon cancer-derived cell line; American Type Culture Collection, Rockville, Md., U.S.A.) were used as small-intestinal epithelial cell models to evaluate the influence of peppermint, dokudami (houttuynia herb), and licorice extracts on IL-8 production by the cells.
(§1) The Caco-2 cells were subcultured in 24-well plates. The resulting cells were cultured at 37° C. for 14 days under 5% CO2 conditions and thereby differentiated into small-intestinal epithelioid cells. Culture media used were DMEM media (SIGMA Corp.) containing 10% fetal calf serum, 1% non essential amino acid solution, 2% glutamine, 100 U/ml penicillin, and 100 μg/ml streptomycin. A peppermint extract obtained in Example 1, a dokudami (houttuynia herb) extract obtained in Example 2, and a licorice extract obtained in Example 3 were added at each final concentration of 100 μg/ml to the media, and the cells were cultured therein. After 6-hour culture, the media were replaced with additive-free media, followed by additional culture for 12 hours. The resulting culture supernatants were subjected to sandwich ELISA assay (Eckmann, L., et al., Gastroenterology, 105, 1689-1697, 1993) to quantify the amount of IL-8 in the culture supernatants.
Caco-2 cells (human colon cancer-derived cell line; American Type Culture Collection, Rockville, Md., U.S.A.) were used as small-intestinal epithelial cell models to evaluate the influence of α-humulene, α-pinene, β-pinene and L-menthol on IL-8 production by the cells.
as §1, with “5% Co2” for “5% CO2”, “streptomycin. α-humulene (SIGMA Corp.), α-pinene (SIGMA Corp.), β-pinene (SIGMA Corp.),” for “streptomycin. A peppermint extract obtained in Example 1, a dokudami (houttuynia herb) extract obtained in Example 2,”, “and L-menthol (SIGMA Corp.)” for “and a licorice extract obtained in Example 3”, “media was” for “media were”, “assay” for “assay (Eckmann, L., et al., Gastroenterology, 105, 1689-1697, 1993)”

Caco-2 cells = test: Evaluation of cytotoxicity by LDH (lactate dehydrogenase) assay; format: cell-based; settings: 100 μg/ml; 24 hours; differentiated Caco-2 cells
Description: The cytotoxicity of peppermint, dokudami (houttuynia herb), licorice extracts was evaluated with Caco-2 cells. The Caco-2 cells differentiated into small-intestinal epithelioid cells in the same way as in Example 4 were cultured for 24 hours in media containing the peppermint, dokudami (houttuynia herb), and licorice extracts at each final concentration of 100 μg/ml. Subsequently, the media were removed, and the resulting cells were washed twice with PBS (phosphate buffered saline) (−) (Nissui Co., Ltd.). The cells were further supplemented with 700 μl of PBS (−) and left undisturbed at 37° C. for 2 hours. […] In summary, this assay is a method for quantifying cytotoxicity based on the activity of LDH released from dead cells by colormetrically determining formazan converted from a tetrazolium salt serving as a coloring reagent. The rate of free LDH (%) was calculated according to the equation below by using the LDH concentration in the collected PBS (−) as the amount of free LDH and the LDH concentration in the cell lysate as the amount of intracellular LDH. […]
The cytotoxicity of α-humulene was evaluated with Caco-2 cells. […] The rate of free LDH (6) was calculated according to the equation below by using the LDH concentration in the collected PBS (—) as the amount of free LDH and the LDH concentration in the cell lysate as the amount of intracellular LDH. […]

SMILES | IL-8 production by the Caco-2 cells (relative IL-8 concentration to a control, FIG. 2) [1] | Cytotoxicity (rate of free LDH vs control, FIG. 4) (Caco-2 cells)
CC1=CC[C@H]2C[C@@H]1C2(C)C [α-pinene] | remarkably promoted IL-8 production | –
C/C1=C\CC/C(C)=C/CC(C)(C)/C=C/C1 [α-humulene] | remarkably promoted IL-8 production | no cytotoxicity
C=C1CC[C@@H]2C[C@H]1C2(C)C [β-pinene] | remarkably promoted IL-8 production | –
CC(C)[C@@H]1CC[C@@H](C)C[C@H]1O [L-menthol] | remarkably promoted IL-8 production | –
